molecular target: T1, Komplexbildung von β-Catenin und LEF-1 (Homo sapiens, UniProt P35222); assay: ELISA for inhibition of complex formation of β-Catenin and LEF-1 (recombinant His-tagged proteins, detection with antibody PA2); format: binding; conditions: recombinant LEF-1 adsorbed, 50-100 ng β-Catenin, 10% DMSO final, substances 1 µM to 10 mM, read-out: IC50 Hemmung der Komplexbildung von β-Catenin und LEF/TCF
T1 construct: made in house
T1 sequence (P35222 1-781): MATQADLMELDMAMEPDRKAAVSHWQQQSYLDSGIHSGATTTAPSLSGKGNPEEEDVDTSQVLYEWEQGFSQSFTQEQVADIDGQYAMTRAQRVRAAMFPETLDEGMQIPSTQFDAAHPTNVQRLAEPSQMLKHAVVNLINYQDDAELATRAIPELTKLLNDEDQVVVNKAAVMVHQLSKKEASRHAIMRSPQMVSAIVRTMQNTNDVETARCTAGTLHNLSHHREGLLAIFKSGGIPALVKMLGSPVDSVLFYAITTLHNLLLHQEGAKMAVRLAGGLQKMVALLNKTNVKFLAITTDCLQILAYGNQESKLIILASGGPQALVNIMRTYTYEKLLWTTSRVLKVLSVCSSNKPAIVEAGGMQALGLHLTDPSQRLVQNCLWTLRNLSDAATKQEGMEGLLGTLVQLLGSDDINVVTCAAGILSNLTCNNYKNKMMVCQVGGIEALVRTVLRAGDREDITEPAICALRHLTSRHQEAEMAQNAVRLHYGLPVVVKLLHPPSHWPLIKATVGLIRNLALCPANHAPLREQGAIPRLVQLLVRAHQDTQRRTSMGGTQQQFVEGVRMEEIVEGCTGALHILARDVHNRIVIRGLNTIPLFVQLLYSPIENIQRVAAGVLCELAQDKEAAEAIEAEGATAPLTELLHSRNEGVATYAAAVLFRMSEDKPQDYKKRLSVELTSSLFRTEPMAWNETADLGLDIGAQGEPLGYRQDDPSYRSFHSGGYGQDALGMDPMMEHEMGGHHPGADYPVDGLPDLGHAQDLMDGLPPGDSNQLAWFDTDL
Text: Im Einzelnen wurden folgende Untersuchungen durchgerührt: • 1. Identifizierung von separaten, essentiellen Bindungsstellen von β-Catenin für die Interaktion mit LEF-1/TCF-4, mit den 20 und 15 Aminosäure-Repeats von APC oder Conductin/Axin Basierend auf der Röntgen-Kristall-Strukturanalyse der Armadillo-Domäne von β-Catenin (Huber et al., 1997) wurden ausgewählte basische und aromatische Aminosäure-Reste durch Alanin-Reste substituiert und die Punktmutanten auf Interaktion mit den Bindungspartnern von β-Catenin im Hefe-2-Hybrid-System analysiert (Abb. 1). Die Mutationen, welche spezifische Interaktionen blockieren, bilden Cluster in separaten Subregionen der Domäne. Sie markieren die essentiellen Kontaktpunkte in den spezifischen Bindungsstellen für die Interaktion mit LEF/TCF (Lys 435, Arg 469, His 470, Lys 508, Arg 515), mit den 20 Aminosäure-Repeats von APC (Trp 383, Lys 345), mit den 15 Aminosäure-Repeats von APC (Arg 386), oder mit Conductin (Phe 253, His 260, Lys 292). Die erweiterten Interaktionsstellen sind der Abb 1 zu entnehmen. • 2. Analyse der Moleküloberfläche von β-Catenin im Bereich der essentiellen Bindungsstelle für LEF/TCF Ausgehend von den Daten zur Röntgenkristallstruktur von β-Catenin wurde mit den Programmen Grasp und LUDI (MSI) die Moleküloberfläche im Bereich der Bindungsstelle berechnet. Es ist hierdurch gelungen eine hydrophobe Tasche zu identifizieren (Abb.2), die von den folgenden Aminosäuren umrandet ist: Val 358, Met 363, Ala 391, Ala 392, Thr 393, Lys 394, Gln 395, Met 398, Leu 401, Leu 402, Ile 423, Asn 426, Leu 427, Thr 428, Cys 429, Asn 430, Asn 431, Asn 434, Met 437, Val 438. Diese Tasche lokalisiert in engster Nachbarschaft zu der essentiellen Bindungsstelle für LEF/TCF. Sie ist von großer Bedeutung für die Computer-gestützte Durchmusterung von Substanzbibliotheken zur Selektion von Molekülen, die in dieser Tasche binden. Die Idee primär hydrophobe Wechselwirkungen in der Tasche zum Ausgangspunkt zu wählen, hat den energetischen Vorteil, das die Substanzen nicht mit der Hydrathülle der geladenen Aminosäure-Reste der Oberfläche kompetieren müssen. Diese Substanzen stellen somit nach gezielter Modifikation potente Therapeutika zur Behandlung von Tumoren dar, da die Interaktion von LEF/TCF mit β-Catenin ein frühes Ereignis zur Entstehung von Tumoren darstellt. Sie wurden experimentell auf ihre Fähigkeit zur Hemmung der onkogenen Interaktion getestet (ELISA) und sollen modifiziert werden. Das molekulare Modellieren der Substanzen in der Tasche basiert auf der Idee, die Wechselwirkungen in der Tasche selbst zu stabilisieren und zusätzliche Kontakte zu den essentiellen Aminosäure-Resten der LEF/TCF-Bindungsstelle zu schaffen. Durch diese Strategie sollen die Substanzen in ihrer Wirkung optimiert werden. • 3. Identifizierung von Substanzen die in der hydrophoben Tasche binden Es wurden Computer-gestützt Substanzbibliotheken durchmustert und deren Moleküle auf stabilisierende Wechselwirkungen in der hydrophoben Tasche ausgewählt. Die ausgewählten Substanzen wurden auf Hemmung der Komplexbildung von β-Catenin und LEF-1 im ELISA experimentell getestet. […] Diese Kernstruktur besteht aus einem aromatischem Ring (beim Cefamandole am Kohlenstoffatom 17, Numerierung siehe "Positiv-Liste")), einer organischen Komponente, die der Struktur des Ala-Ala Dipeptides ähnelt, und einem β-Lactam- und Thiazolring. Mit dem aromatischen Ring wurde die Substanz in der beschriebenen hydrophoben Tasche eingepaßt. […]

Row | Structure (SMILES) | IC50
1 | CCCCCCCCCCCCCCCCCC(=O)OC[C@H]1OC(O)[C@H](NC(C)=O)[C@@H](O[C@H](C)C(=O)N[C@@H](C)C(=O)N[C@H](CCC(=O)O)C(N)=O)[C@@H]1O (stereo partly drawn) [AC-(6-O-Stearoyl)-Muramyl-Ala-D-Isoglutamine] | 100 µM
2 | CC1=C(C(=O)O)N2C(=O)[C@@H](NC(=O)[C@H](N)c3ccc(O)cc3)[C@H]2SC1 [Cefadroxil] | 50 to 100 µM

The next lines start with the values.

Row | IC50 | Structure (SMILES)
3 | 50 to 100 µM | Cn1nnnc1SCC1=C(C(=O)O)N2C(=O)[C@@H](NC(=O)[C@H](OC=O)c3ccccc3)[C@H]2SC1 [Cefamandole-Nafate]
4 | 25 µM | Cn1nnnc1SCC1=C(C(=O)O)N2C(=O)[C@@H](NC(=O)[C@H](O)c3ccccc3)[C@H]2SC1 [Cefamandole]
5 | 50 to 100 µM | NC(=O)c1cc[n+](CC2=C(C(=O)O)N3C(=O)[C@@H](NC(=O)[C@@H](c4ccccc4)S(=O)(=O)[O-])[C@H]3SC2)cc1 [Cefsulodine]
